In patent US8778871B2 (Takeda Pharmaceutical Company Limited, priority 2004, dated 2014):
Starred links: 1 amine or outer side, 2 acyl side, 3 side chain; linkers in the order of their positions; H or OH if unused. Non-standard residues stand in square brackets, D forms with d. Residues, ends and D or L forms follow the SMILES beside them. Primed or numbered codes have the meaning given here. Tyr(Me) = COc1ccc(C[C@H](N[*:1])C(=O)[*:2])cc1; d1Nal = N[C@H](Cc1cccc2ccccc12)C(=O)O; d2Nal = N[C@H](Cc1ccc2ccccc2c1)C(=O)O; Arg(Me) = CNC(=N)NCCC[C@H](N)C(=O)O; Abu = CC[C@H](N)C(=O)O; Aib = CC(C)(N)C(=O)O; azaGly = NNC(=O)O

Target: T1, hOT7T175 (Homo sapiens, UniProt Q969F8, L364H)
T1 construct: expressed in transfected cells
T1 sequence (Q969F8 whole entry L364H): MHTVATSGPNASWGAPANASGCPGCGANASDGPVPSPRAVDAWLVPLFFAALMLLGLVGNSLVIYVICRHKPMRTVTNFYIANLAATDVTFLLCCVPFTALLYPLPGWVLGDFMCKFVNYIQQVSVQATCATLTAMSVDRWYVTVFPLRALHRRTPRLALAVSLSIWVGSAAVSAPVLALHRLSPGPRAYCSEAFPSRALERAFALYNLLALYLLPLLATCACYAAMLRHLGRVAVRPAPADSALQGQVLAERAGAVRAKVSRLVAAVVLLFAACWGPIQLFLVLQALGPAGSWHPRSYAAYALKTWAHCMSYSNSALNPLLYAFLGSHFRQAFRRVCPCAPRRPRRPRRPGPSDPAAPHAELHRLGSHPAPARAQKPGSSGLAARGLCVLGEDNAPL
Assay type: cell-based
Conditions: hOT7T175/CHO, FLIPR, evaluation for 40 seconds after initiation of the reaction
Experimental: The intracellular Ca ion level-increasing activity was measured using FLIPR as in TEST EXAMPLE 2.

## 2-Naphthoyl-Asn-Ser-Phe-AzaGly-Leu-Arg(Me)-Trp-NH2 [Compound No. 535]
  Specific Act. (EC50/MS10 EC50): 0.8

## 3-Phenylpropionyl-Asn-Aze(2)-Phe-AzaGly-Leu-Arg(Me)-Trp-NH2 [Compound No. 532]
  Specific Act. (EC50/MS10 EC50): 1.0

## 3-Phenylpropionyl-Asn-D-Pro-Phe-AzaGly-Leu-Arg(Me)-Trp-NH2 [Compound No. 533]
  Specific Act. (EC50/MS10 EC50): 9.7

## 3-Phenylpropionyl-Asn-Pic(2)-Phe-AzaGly-Leu-Arg(Me)-Trp-NH2 [Compound No. 531]
  Specific Act. (EC50/MS10 EC50): 1.8

## 3-Phenylpropionyl-Asn-Pro-Phe-AzaGly-Leu-Arg(Me)-Trp-NH2 [Compound No. 524]
  Specific Act. (EC50/MS10 EC50): 1.1

## 3-Phenylpropionyl-Asn-Ser(Ac)-Phe-AzaGly-Leu-Arg(Me)-Trp-NH2 [Compound No. 546]
  Specific Act. (EC50/MS10 EC50): 1.9

## 3-Phenylpropionyl-Asn-Ser-Cha-Gly-Leu-Arg(Me)-Trp-NH2 [Compound No. 518]
  Specific Act. (EC50/MS10 EC50): 10.5

## CNC(=N)NCCC[C@H](NC(=O)[C@H](CC(C)C)NC(=O)CNC(=O)[C@H](Cc1ccccc1)NC(=O)[C@H](CO)NC(=O)[C@H](CC(N)=O)NC(=O)[C@H](Cc1c[nH]c2ccccc12)NC(=O)[C@H](CC(N)=O)NC(=O)[C@@H](N)Cc1ccc(O)cc1)C(=O)N[C@@H](Cc1ccccc1)C(N)=O [Compound No. 82]
  Specific Act. (EC50/MS10 EC50): 1.0

## CNC(=N)NCCC[C@H](NC(=O)[C@H](CC(C)C)NC(=O)NNC(=O)[C@H](Cc1ccccc1)NC(=O)[C@H](CO)NC(=O)[C@H](CC(N)=O)NC(=O)[C@H](CO)NC(=O)[C@H](N)Cc1ccc(O)cc1)C(=O)N[C@@H](Cc1ccccc1)C(N)=O [Compound No. 239, D-Tyr-Ser-Asn-Ser-Phe-AzaGly-Leu-Arg(Me)-Phe-NH2] (H-[dY]SNSF[azaGly]L[Arg(Me)]F-NH2)
  Specific Act. (EC50/MS10 EC50): 6.7

## CC[C@H](C)[C@H](NC(=O)[C@H](N)Cc1ccc(O)cc1)C(=O)N[C@@H](CC(N)=O)C(=O)N[C@@H](CO)C(=O)N[C@@H](Cc1ccccc1)C(=O)NNC(=O)N[C@@H](CC(C)C)C(=O)N[C@@H](CCCNC(=N)NC)C(=O)N[C@@H](Cc1ccccc1)C(N)=O [Compound No. 240, D-Tyr-Ile-Asn-Ser-Phe-AzaGly-Leu-Arg(Me)-Phe-NH2] (H-[dY]INSF[azaGly]L[Arg(Me)]F-NH2)
  Specific Act. (EC50/MS10 EC50): 4.9

## Ac-D-Tyr-D-Pro-Asn-Thr-Phe-AzaGly-Leu-Arg(Me)-Trp-NH2 (Ac-[dY][dP]NTF[azaGly]L[Arg(Me)]W-NH2; SMILES CNC(=N)NCCC[C@H](NC(=O)[C@H](CC(C)C)NC(=O)NNC(=O)[C@H](Cc1ccccc1)NC(=O)[C@@H](NC(=O)[C@H](CC(N)=O)NC(=O)[C@H]1CCCN1C(=O)[C@@H](Cc1ccc(O)cc1)NC(C)=O)[C@@H](C)O)C(=O)N[C@@H](Cc1c[nH]c2ccccc12)C(N)=O) [Compound No. 661]
  Specific Act. (EC50/MS10 EC50): 8.5

## Ac-D-Tyr-D-Pya(4)-Asn-Thr-D-Phe-AzaGly-Leu-Arg(Me)-Trp-NH2 [Compound No. 603]
  Specific Act. (EC50/MS10 EC50): 1.7

## Ac-D-Tyr-D-Pya(4)-Asn-Thr-Phe-AzaGly-Leu-Arg(Me)-Phe-NH2 [Compound No. 685]
  Specific Act. (EC50/MS10 EC50): 4.8

## Ac-D-Tyr-D-Trp-Alb-Ser-Phe-AzaGly-Leu-Arg(Me)-Trp-NH2 [Compound No. 579]
  Specific Act. (EC50/MS10 EC50): 0.6

## Ac-D-Tyr-D-Trp-Asn-Aze(2)-Phe-AzaGly-Leu-Arg(Me)-Trp-NH2 [Compound No. 563]
  Specific Act. (EC50/MS10 EC50): 0.7

## Ac-D-Tyr-D-Trp-Asn-Thr-Phe-AzaGly-Abu-Arg(Me)-Trp-NH2 (Ac-[dY][dW]NTF[azaGly][Abu][Arg(Me)]W-NH2; SMILES CC[C@H](NC(=O)NNC(=O)[C@H](Cc1ccccc1)NC(=O)[C@@H](NC(=O)[C@H](CC(N)=O)NC(=O)[C@@H](Cc1c[nH]c2ccccc12)NC(=O)[C@@H](Cc1ccc(O)cc1)NC(C)=O)[C@@H](C)O)C(=O)N[C@@H](CCCNC(=N)NC)C(=O)N[C@@H](Cc1c[nH]c2ccccc12)C(N)=O) [Compound No. 698]
  Specific Act. (EC50/MS10 EC50): 2.2

## Ac-D-Tyr-D-Trp-Asn-Thr-Phe-AzaGly-Gln-Arg(Me)-Trp-NH2 (Ac-[dY][dW]NTF[azaGly]Q[Arg(Me)]W-NH2; SMILES CNC(=N)NCCC[C@H](NC(=O)[C@H](CCC(N)=O)NC(=O)NNC(=O)[C@H](Cc1ccccc1)NC(=O)[C@@H](NC(=O)[C@H](CC(N)=O)NC(=O)[C@@H](Cc1c[nH]c2ccccc12)NC(=O)[C@@H](Cc1ccc(O)cc1)NC(C)=O)[C@@H](C)O)C(=O)N[C@@H](Cc1c[nH]c2ccccc12)C(N)=O) [Compound No. 682]
  Specific Act. (EC50/MS10 EC50): 7.3

## Ac-D-Tyr-D-Trp-Asn-Thr-Phe-AzaGly-Ile-Arg(Me)-Trp-NH2 (Ac-[dY][dW]NTF[azaGly]I[Arg(Me)]W-NH2; SMILES CC[C@H](C)[C@H](NC(=O)NNC(=O)[C@H](Cc1ccccc1)NC(=O)[C@@H](NC(=O)[C@H](CC(N)=O)NC(=O)[C@@H](Cc1c[nH]c2ccccc12)NC(=O)[C@@H](Cc1ccc(O)cc1)NC(C)=O)[C@@H](C)O)C(=O)N[C@@H](CCCNC(=N)NC)C(=O)N[C@@H](Cc1c[nH]c2ccccc12)C(N)=O) [Compound No. 678]
  Specific Act. (EC50/MS10 EC50): 1.1

## Ac-D-Tyr-D-Trp-Asn-Thr-Phe-AzaGly-Leu-Arg(Me2)asym-Trp-NH2 [Compound No. 607]
  Specific Act. (EC50/MS10 EC50): 2.2

## Ac-D-Tyr-D-Trp-Asn-Thr-Phe-AzaGly-Leu-Arg(Me)-D-Trp-NH2 (Ac-[dY][dW]NTF[azaGly]L[Arg(Me)][dW]-NH2; SMILES CNC(=N)NCCC[C@H](NC(=O)[C@H](CC(C)C)NC(=O)NNC(=O)[C@H](Cc1ccccc1)NC(=O)[C@@H](NC(=O)[C@H](CC(N)=O)NC(=O)[C@@H](Cc1c[nH]c2ccccc12)NC(=O)[C@@H](Cc1ccc(O)cc1)NC(C)=O)[C@@H](C)O)C(=O)N[C@H](Cc1c[nH]c2ccccc12)C(N)=O) [Compound No. 689]
  Specific Act. (EC50/MS10 EC50): 2.3

## Ac-D-Tyr-D-Trp-Asn-Thr-Phe-AzaGly-Leu-Har(Me)-Trp-NH2 [Compound No. 646]
  Specific Act. (EC50/MS10 EC50): 1.8

## Ac-D-Tyr-D-Trp-Asn-Thr-Phe-AzaGly-Leu-Pya(4)-Trp-NH2 (Ac-[dY][dW]NTF[azaGly]L-{Pya(4)-Trp-NH2}) [Compound No. 688]
  Specific Act. (EC50/MS10 EC50): 9.7

## Ac-D-Tyr-D-Trp-Asn-Thr-Phe-AzaGly-γMeLeu-Arg(Me)-Trp-NH2 (Ac-[dY][dW]NTF[azaGly]-{γMeLeu-Arg(Me)-Trp-NH2}) [Compound No. 699]
  Specific Act. (EC50/MS10 EC50): 1.3

## Ac-D-Tyr-D-Trp-Asn-Thr-Phe-Gly-Aib-Arg(Me)-Trp-NH2 (Ac-[dY][dW]NTFG[Aib][Arg(Me)]W-NH2; SMILES CNC(=N)NCCC[C@H](NC(=O)C(C)(C)NC(=O)CNC(=O)[C@H](Cc1ccccc1)NC(=O)[C@@H](NC(=O)[C@H](CC(N)=O)NC(=O)[C@@H](Cc1c[nH]c2ccccc12)NC(=O)[C@@H](Cc1ccc(O)cc1)NC(C)=O)[C@@H](C)O)C(=O)N[C@@H](Cc1c[nH]c2ccccc12)C(N)=O) [Compound No. 700]
  Specific Act. (EC50/MS10 EC50): 0.8

## Ac-D-Tyr-D-Trp-Asn-Thr-PheΨ(CH2NH)Gly-Leu-Arg(Me)-Trp-NH2 [Compound No. 569]
  Specific Act. (EC50/MS10 EC50): 0.5

## Ac-D-Tyr-D-Trp-Asn-Thr-Trp-AzaGly-Leu-Arg(Me)-Trp-NH2 (Ac-[dY][dW]NTW[azaGly]L[Arg(Me)]W-NH2; SMILES CNC(=N)NCCC[C@H](NC(=O)[C@H](CC(C)C)NC(=O)NNC(=O)[C@H](Cc1c[nH]c2ccccc12)NC(=O)[C@@H](NC(=O)[C@H](CC(N)=O)NC(=O)[C@@H](Cc1c[nH]c2ccccc12)NC(=O)[C@@H](Cc1ccc(O)cc1)NC(C)=O)[C@@H](C)O)C(=O)N[C@@H](Cc1c[nH]c2ccccc12)C(N)=O) [Compound No. 692]
  Specific Act. (EC50/MS10 EC50): 0.7

## Ac-D-Tyr-D-Trp-Asn-Thr-Tyr(Me)-AzaGly-Leu-Arg(Me)-Trp-NH2 (Ac-[dY][dW]NT[Tyr(Me)][azaGly]L[Arg(Me)]W-NH2; SMILES CNC(=N)NCCC[C@H](NC(=O)[C@H](CC(C)C)NC(=O)NNC(=O)[C@H](Cc1ccc(OC)cc1)NC(=O)[C@@H](NC(=O)[C@H](CC(N)=O)NC(=O)[C@@H](Cc1c[nH]c2ccccc12)NC(=O)[C@@H](Cc1ccc(O)cc1)NC(C)=O)[C@@H](C)O)C(=O)N[C@@H](Cc1c[nH]c2ccccc12)C(N)=O) [Compound No. 693]
  Specific Act. (EC50/MS10 EC50): 1.5

## Ac-D-Tyr-D-Trp-Asn-Thr-Tyr-AzaGly-Leu-Arg(Me)-Trp-NH2 (Ac-[dY][dW]NTY[azaGly]L[Arg(Me)]W-NH2; SMILES CNC(=N)NCCC[C@H](NC(=O)[C@H](CC(C)C)NC(=O)NNC(=O)[C@H](Cc1ccc(O)cc1)NC(=O)[C@@H](NC(=O)[C@H](CC(N)=O)NC(=O)[C@@H](Cc1c[nH]c2ccccc12)NC(=O)[C@@H](Cc1ccc(O)cc1)NC(C)=O)[C@@H](C)O)C(=O)N[C@@H](Cc1c[nH]c2ccccc12)C(N)=O) [Compound No. 691]
  Specific Act. (EC50/MS10 EC50): 1.1

## Ac-D-Tyr-D-Trp-Asp(NMe2)-Thr-Phe-AzaGly-Leu-Arg(Me)-Trp-NH2 [Compound No. 703]
  Specific Act. (EC50/MS10 EC50): 3.7

## Ac-D-Tyr-D-Trp-Gly-Ser-Phe-AzaGly-Leu-Arg(Me)-Trp-NH2 (Ac-[dY][dW]GSF[azaGly]L[Arg(Me)]W-NH2; SMILES CNC(=N)NCCC[C@H](NC(=O)[C@H](CC(C)C)NC(=O)NNC(=O)[C@H](Cc1ccccc1)NC(=O)[C@H](CO)NC(=O)CNC(=O)[C@@H](Cc1c[nH]c2ccccc12)NC(=O)[C@@H](Cc1ccc(O)cc1)NC(C)=O)C(=O)N[C@@H](Cc1c[nH]c2ccccc12)C(N)=O) [Compound No. 686]
  Specific Act. (EC50/MS10 EC50): 0.6

## Ac-D-Tyr-Pya(4)-Asn-Thr-Phe-AzaGly-Leu-Arg(Me)-Trp-NH2 [Compound No. 624]
  Specific Act. (EC50/MS10 EC50): 1.2

## Ac-Tyr-D-Pya(4)-Asn-Thr-Phe-AzaGly-Leu-Arg(Me)-Trp-NH2 [Compound No. 611]
  Specific Act. (EC50/MS10 EC50): 1.7

## Ac-[d1Nal][dW]NTF[azaGly]L[Arg(Me)]W-NH2 [Compound No. 619]
  Specific Act. (EC50/MS10 EC50): 1.5

## Ac-[d2Nal][dW]NTF[azaGly]L[Arg(Me)]W-NH2 [Compound No. 620]
  Specific Act. (EC50/MS10 EC50): 1.7

## Ac-[dE][dW]NTF[azaGly]L[Arg(Me)]W-NH2 [Compound No. 622]
  Specific Act. (EC50/MS10 EC50): 2.8

## Ac-[dR][dY][dW]NTF[azaGly]L[Arg(Me)]W-NH2 [Compound No. 568]
  Specific Act. (EC50/MS10 EC50): 0.6
